Drawing on the OligoGym collection, this text covers target mRNA inhibition for 36 sequences.

The target of the data set is DGAT2. As to conditions: ASO.

Where “and” joins values, the source holds several entries; their conditions need not be identical. Equal entries are not always repeated. After the bases stand the sugars from the 5' end (letter, count) and the backbone: PS all phosphorothioate, else s phosphorothioate and o phosphodiester by linkage. Methylation of C is not given here. e = 2'-O-(2-methoxyethyl) (MOE); d = 2'-deoxy (DNA)

Consider “CACTAAATTAGGAAGCTGGG (sugars e5 d10 e5, PS)”, for which the target mRNA inhibition by setting is: (HepG2, 2.5 µM) 81% and 82%; (HepG2, 10 µM) 83% and 85%.

Regarding “AGGCAGATGGACAGGTGATT (sugars e5 d10 e5, PS)”, the target mRNA inhibition by setting is: (HepG2, 2.5 µM) 54%; (HepG2, 10 µM) 92%.

For the sequence “TTGTCCTAGTGCCCCAGGGA (sugars e5 d10 e5, PS)”, the target mRNA inhibition came to 75% (HepG2, 2.5 µM) and 85% (HepG2, 10 µM).

Under “HepG2, 0.12 µM”, “AGCAGGTTGTGTGTCTTCAC (sugars e2 d13 e5, PS)” registered a target mRNA inhibition of 44%.

“TAGCCAGGTAAGGCCGTATG (sugars e3 d14 e3, PS)” came in with a target mRNA inhibition (HepG2, 0.12 µM) of 49%.

For “AGGCTCTGGTTCCATGCTCT (sugars e5 d10 e5, PS)”, the target mRNA inhibition is, setting by setting: (HepG2, 2.5 µM) 61%; (HepG2, 10 µM) 79%.

Turning to “AGGACCCCGGAGTAGGCGGC (sugars e2 d13 e5, PS)”, the target mRNA inhibition was 81% (HepG2, 0.12 µM) and 85% (HepG2, 10 µM).

Take “GGTGACTGCATTCTTGCCAG (sugars e5 d10 e5, PS)”: under “HepG2, 0.12 µM”, the target mRNA inhibition came to 25%.

Consider “ATGCCAATGCCTAGGTC (sugars e3 d10 e4, PS)”, for which, under “HepG2, 2.5 µM”, the target mRNA inhibition is 70% and 84%.

For the sequence “AGGGAAGCATGTGCAGCCTA (sugars e5 d10 e5, PS)”, the target mRNA inhibition is 72% and 66% (HepG2, 2.5 µM); 87% and 90% (HepG2, 10 µM).

Turning to “ACTCCCACCTGAGTGCTGCA (sugars e5 d10 e5, PS)”, the target mRNA inhibition (HepG2, 2.5 µM) was found to be 92% and the target mRNA inhibition (HepG2, 10 µM) is 80%.

As to “GGACACCTGGAGCTGCGGCC (sugars e5 d10 e5, PS)”, the target mRNA inhibition runs as follows: (HepG2, 2.5 µM) 35%; (HepG2, 10 µM) 73%.

On to “GGTAAGGCCGTATGCCTGGG (sugars e3 d14 e3, PS)”, for which the target mRNA inhibition (HepG2, 0.12 µM) was 51%.

For “GTTGTGTGTCTTCACCAGCT (sugars e2 d13 e5, PS)”, the target mRNA inhibition (HepG2, 0.12 µM) worked out at 65%.

Regarding “GCTAAGGAAAACTTAGGCAT (sugars e5 d10 e5, PS)”, the target mRNA inhibition was 56% (HepG2, 2.5 µM); 89% and 85% (HepG2, 10 µM).

As to “TGGATAGTCGATTTACCAGA (sugars e5 d10 e5, PS)”, the target mRNA inhibition was 62% (HepG2, 2.5 µM) and 90% (HepG2, 10 µM).

Consider “TCCCAGACCCCTCGCGCGAC (sugars e5 d10 e5, PS)”, for which the target mRNA inhibition (HepG2, 0.12 µM) turned out to be 36%.

Turning to “GCAGCCTACAAGAGCCTGTT (sugars e5 d10 e5, PS)”, the target mRNA inhibition runs as follows: (HepG2, 2.5 µM) 59%; (HepG2, 10 µM) 89%.

The sequence “ACAGGACCCACTGGAGCACT (sugars e5 d10 e5, PS)” yielded a target mRNA inhibition (HepG2, 0.12 µM) of 79%.

Sequence “TGGCACTAAGCTAGGCACAC (sugars e5 d10 e5, PS)” returned a target mRNA inhibition (HepG2, 0.12 µM) of 62%.

On to “ACACACAATATCCATGGACT (sugars e5 d10 e5, PS)”, for which the target mRNA inhibition runs as follows: (HepG2, 2.5 µM) 68%; (HepG2, 10 µM) 95%.

For the setting “HepG2, 0.12 µM”, “TTGTGTGTCTTCACCAGCTG (sugars e3 d14 e3, PS)” had a target mRNA inhibition of 60%.

For “CGTGAGCTGGTGTTCTACAA (sugars e5 d10 e5, PS)”, the target mRNA inhibition came out at 59% (HepG2, 2.5 µM) and 74% (HepG2, 10 µM).

Turning to “CCCACAGAAGAGCAAAGGCT (sugars e5 d10 e5, PS)”, the target mRNA inhibition (HepG2, 2.5 µM) is 76% and 74%; the target mRNA inhibition (HepG2, 10 µM) is 94% and 92%.

“CCCCCACTGTCAGTCTCTCC (sugars e5 d10 e5, PS)” came in with a target mRNA inhibition (HepG2, 2.5 µM) of 37% and a target mRNA inhibition (HepG2, 10 µM) of 76%.

With “GCCCAGTTTCGGACCCACTG (sugars e3 d14 e3, PS)”, the target mRNA inhibition (HepG2, 0.12 µM) came to 81%.

Regarding “GCCTCCATGTACATGGTGTG (sugars e5 d10 e5, PS)”, where the note is “HepG2, 0.12 µM”, the target mRNA inhibition was 63%.

As to “GCCCAATATCTGATATCAAA (sugars e5 d10 e5, PS)”, the target mRNA inhibition is, setting by setting: (HepG2, 2.5 µM) 80% and 69%; (HepG2, 10 µM) 89% and 84%.

Turning to “CCAGGTAAGGCCGTATGCCT (sugars e5 d10 e5, PS)”, the target mRNA inhibition was 78% and 76% (HepG2, 0.12 µM); 18% (HepG2, 2.5 µM); 20% (HepG2, 10 µM); 43% (HepG2, 20 µM).

Turning to “TGATTCTTACCTGCAATGAG (sugars e5 d10 e5, PS)”, the target mRNA inhibition (HepG2, 0.12 µM) is 22%.

On to “TGCCAATGCCTAGGTCACAG (sugars e5 d10 e5, PS)”, for which the target mRNA inhibition runs as follows: (HepG2, 2.5 µM) 78% and 87%; (HepG2, 10 µM) 87% and 91%.

On to “AACTGAGATCTCCAGCAGCA (sugars e5 d10 e5, PS)”, for which the target mRNA inhibition by setting is: (HepG2, 2.5 µM) 91% and 78%; (HepG2, 10 µM) 94% and 96%.

On to “GCTTCAATAAATACCTTATC (sugars e5 d10 e5, PS)”, for which the target mRNA inhibition was 84% and 74% (HepG2, 2.5 µM); 92% and 97% (HepG2, 10 µM).

With “CCCTGGGACTCAGTGTCCTC (sugars e5 d10 e5, PS)”, the target mRNA inhibition reads like this: (HepG2, 2.5 µM) 90%; (HepG2, 10 µM) 83%.

Where the note is “HepG2, 0.12 µM”, “CAGGTCCTCCGTGAGAGCGC (sugars e5 d10 e5, PS)” returned a target mRNA inhibition of 29%.

Turning to “AGTAAGGGTATTCTGCTCAT (sugars e5 d10 e5, PS)”, the target mRNA inhibition (HepG2, 2.5 µM) was 87% and the target mRNA inhibition (HepG2, 10 µM) was found to be 77%.
